Measured values reported in patent US12552798B2, “Substituted imidazolecarboxamide as Bruton's tyrosine kinase inhibitors” (Henan Zhiwei Biomedicine Co., Ltd., priority 2019, dated 2026).
Read-outs that look alike come from different tables or passages of the source.

Assays:
293T = assay: Cell antiproliferative activity assay (CellTiter-Glo), 293T; format: cell-based; conditions: 72 hs, read-out: Cell Growth IC50 (nM) 293T
Description: (§1) Cell Antiproliferative Activity Assay
(§2) Cell antiproliferative activity was evaluated by the CellTiter-Glo (Promega, USA) assay. Make 1000× compounds solution in DMSO, add 1 μl 1000× compounds to […] growth medium to make 20× compounds. Dilute cell suspensions in growth medium to desired density and 95 μl were taken to 96-well plate. Add 5 μl 20× compounds into 96-well plate according to the plate map. Final DMSO concentration in each well was 0.1%. Then the cell was incubated at 37° C., 5% CO2 for 72 hs. Equilibrate the assay plate to room temperature before measurement. Add 20 μl of CellTiter-Glo© Reagent into each well. Mix contents for 2 minutes on an orbital shaker to induce cell lysis. Incubate at room temperature for 10 minutes to stabilize luminescent signal. Record luminescence using EnVision Multilabel Reader (PerkinElmer). Cell viability (CV %) was calculated relative to vehicle (DMSO) treated control wells using following formula: Cell viability (%)=(RLU compound−RLU blank)/(RLU control−RLU blank)*100%. The IC50 values were calculated using GraphPad Prism 6.0 software, fitting to a 4-parameter equation to generate concentration response curves. All assays were conducted with three parallel samples and three repetitions.

Ramos = assay: Cell antiproliferative activity assay (CellTiter-Glo), Ramos; format: cell-based; conditions: 72 hs, read-out: Cell Growth IC50 (nM) Ramos
Description: as §1, §2

BTK = BTK (Homo sapiens (Human), UniProt Q06187); assay: BTK kinase inhibitory assay (ELISA); format: biochemical; conditions: 3 μmol/L ATP
Sequence of BTK (Q06187 whole entry): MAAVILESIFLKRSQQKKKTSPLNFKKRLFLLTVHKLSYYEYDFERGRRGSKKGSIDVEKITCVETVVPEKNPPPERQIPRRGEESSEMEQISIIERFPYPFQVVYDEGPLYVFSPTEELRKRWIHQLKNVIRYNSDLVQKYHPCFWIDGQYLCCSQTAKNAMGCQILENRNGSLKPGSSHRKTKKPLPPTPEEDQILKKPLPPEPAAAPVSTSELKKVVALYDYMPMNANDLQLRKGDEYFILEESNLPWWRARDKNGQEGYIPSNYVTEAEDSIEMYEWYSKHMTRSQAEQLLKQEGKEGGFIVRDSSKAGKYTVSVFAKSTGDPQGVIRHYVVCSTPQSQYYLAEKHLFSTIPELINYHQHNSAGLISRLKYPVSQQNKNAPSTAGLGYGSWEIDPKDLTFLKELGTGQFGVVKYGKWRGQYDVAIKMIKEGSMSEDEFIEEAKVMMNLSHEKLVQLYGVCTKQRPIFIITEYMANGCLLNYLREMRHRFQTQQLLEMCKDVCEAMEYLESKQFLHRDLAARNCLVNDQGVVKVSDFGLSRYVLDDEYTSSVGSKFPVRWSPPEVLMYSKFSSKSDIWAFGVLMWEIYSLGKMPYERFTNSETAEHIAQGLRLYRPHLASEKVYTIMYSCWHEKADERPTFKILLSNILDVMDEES
Description: (§3) BTK, EGFR, BMX, or ITK Inhibitory Assay Procedure for BTK, BMX, EGFR and ITK Inhibitory Assay:
(§4) Kinase inhibitory activities of compounds were evaluated using the Enzyme-linked immunosorbent assay (ELISA). The kinase enzyme of BTK, BMX, EGFR and ITK were purchased from Carna Bioscience (Kobe, Japan). A total of 10 ng/mL antiphosphotyrosine (PY713) antibody (abcam, Cambridge Science Park, UK) was precoated in 96-well ELISA plates. The kinase enzymes in each reaction well were set to BTK (101.25 ng/mL), BMX (90 ng/mL), EGFR (90 ng/mL) or ITK (120 ng/mL) and incubated with indicated compounds in 1× reaction buffer (50 mmol/L HEPES pH 7.4, 20 mmol/L MgCl2, 0.1 mmol/L MnCl2, 1 mmol/L DTT) containing 20 μmol/L (the final concentration of substrate in ITK reaction was 30 μmol/L) substrate (NH2-ETVYSEVRK-biotin) at 25° C. for 1 h. Then, a total of 3 μmol/L ATP was added and the reaction was continued for 2 hrs. The products of reaction were transferred into 96-well ELISA plates containing antibody and incubated at 25° C. for 30 min. After incubation, the wells were washed with PBS and then incubated with horseradish peroxidase […]-conjugated streptavidin. The wells were visualized using 3,3′,5,5′-tetramethylbenzidine (TMB), and chromogenic reaction was ended with 2 mol/L H2SO4, the absorbance was read with a multimode plate reader (PerkinElmer, USA) at 450 nm. IC50 values and curve fits were obtained using Prism (GraphPad Software).

ITK = ITK (Homo sapiens (Human), UniProt Q08881); assay: ITK kinase inhibitory assay (ELISA); format: biochemical; conditions: for IC50: ELISA, 3 μmol/L ATP; for Selectivity Ratio (BTK and ITK): ITK IC50 relative to BTK IC50
Sequence of ITK (Q08881 whole entry): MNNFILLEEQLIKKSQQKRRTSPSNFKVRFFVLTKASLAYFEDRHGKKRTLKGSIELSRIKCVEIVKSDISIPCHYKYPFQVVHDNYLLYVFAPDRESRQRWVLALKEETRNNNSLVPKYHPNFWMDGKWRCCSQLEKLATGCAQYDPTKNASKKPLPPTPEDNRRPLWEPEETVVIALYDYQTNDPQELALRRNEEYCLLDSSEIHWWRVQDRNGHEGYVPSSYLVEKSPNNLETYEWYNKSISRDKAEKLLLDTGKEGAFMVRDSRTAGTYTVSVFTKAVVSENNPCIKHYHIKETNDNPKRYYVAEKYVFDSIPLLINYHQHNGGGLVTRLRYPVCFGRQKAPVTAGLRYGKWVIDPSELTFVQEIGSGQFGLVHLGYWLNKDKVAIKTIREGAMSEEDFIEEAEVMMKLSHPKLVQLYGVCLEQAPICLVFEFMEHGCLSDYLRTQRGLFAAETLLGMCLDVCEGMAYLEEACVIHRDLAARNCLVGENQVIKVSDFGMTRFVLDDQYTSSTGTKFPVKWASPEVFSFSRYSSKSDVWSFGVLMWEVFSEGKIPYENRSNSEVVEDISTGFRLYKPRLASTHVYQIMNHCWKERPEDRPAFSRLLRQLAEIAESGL
Description: as §3, §4

EGFR = EGFR (Homo sapiens (Human), UniProt P00533); assay: EGFR kinase inhibitory assay (ELISA); format: biochemical; conditions: for Selectivity Ratio (BTK and EGFR): EGFR IC50 relative to BTK IC50; for IC50: ELISA, 3 μmol/L ATP
Sequence of EGFR (P00533 25-1210): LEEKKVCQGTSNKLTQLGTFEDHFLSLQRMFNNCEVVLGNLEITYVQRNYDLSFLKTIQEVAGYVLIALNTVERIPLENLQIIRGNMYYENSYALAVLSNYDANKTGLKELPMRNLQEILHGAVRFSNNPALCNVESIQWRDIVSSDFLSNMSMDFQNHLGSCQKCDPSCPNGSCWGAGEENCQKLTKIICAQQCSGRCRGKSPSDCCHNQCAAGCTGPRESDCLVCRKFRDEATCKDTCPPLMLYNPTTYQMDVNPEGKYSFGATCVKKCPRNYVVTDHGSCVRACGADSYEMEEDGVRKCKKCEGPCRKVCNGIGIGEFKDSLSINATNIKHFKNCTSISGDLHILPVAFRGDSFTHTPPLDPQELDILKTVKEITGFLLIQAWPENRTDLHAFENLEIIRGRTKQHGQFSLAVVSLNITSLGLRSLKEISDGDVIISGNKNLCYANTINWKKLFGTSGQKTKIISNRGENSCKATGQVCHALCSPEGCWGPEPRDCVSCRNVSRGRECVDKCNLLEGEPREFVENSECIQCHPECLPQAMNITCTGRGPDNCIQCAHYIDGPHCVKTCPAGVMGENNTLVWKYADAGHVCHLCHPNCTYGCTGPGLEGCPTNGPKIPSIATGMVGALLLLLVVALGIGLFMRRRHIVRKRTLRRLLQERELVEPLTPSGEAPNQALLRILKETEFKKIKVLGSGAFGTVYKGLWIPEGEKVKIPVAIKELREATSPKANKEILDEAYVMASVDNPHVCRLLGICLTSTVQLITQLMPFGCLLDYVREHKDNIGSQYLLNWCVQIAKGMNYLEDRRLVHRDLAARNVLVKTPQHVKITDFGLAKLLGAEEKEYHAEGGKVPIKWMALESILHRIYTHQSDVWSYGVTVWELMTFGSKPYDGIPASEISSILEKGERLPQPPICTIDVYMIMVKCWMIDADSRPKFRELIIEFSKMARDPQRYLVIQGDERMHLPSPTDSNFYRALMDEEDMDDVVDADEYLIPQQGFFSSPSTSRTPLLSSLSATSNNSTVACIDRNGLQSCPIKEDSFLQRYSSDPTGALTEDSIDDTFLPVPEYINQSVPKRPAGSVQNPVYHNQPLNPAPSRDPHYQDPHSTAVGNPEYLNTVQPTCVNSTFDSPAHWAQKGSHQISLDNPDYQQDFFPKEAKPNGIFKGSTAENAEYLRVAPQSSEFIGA
Description: as §3, §4

BMX = BMX (Homo sapiens (Human), UniProt P51813); assay: BMX kinase inhibitory assay (ELISA); format: biochemical; conditions: for Selectivity Ratio (BTK and BMX): BMX IC50 relative to BTK IC50; for IC50: ELISA, 3 μmol/L ATP
Sequence of BMX (P51813 whole entry): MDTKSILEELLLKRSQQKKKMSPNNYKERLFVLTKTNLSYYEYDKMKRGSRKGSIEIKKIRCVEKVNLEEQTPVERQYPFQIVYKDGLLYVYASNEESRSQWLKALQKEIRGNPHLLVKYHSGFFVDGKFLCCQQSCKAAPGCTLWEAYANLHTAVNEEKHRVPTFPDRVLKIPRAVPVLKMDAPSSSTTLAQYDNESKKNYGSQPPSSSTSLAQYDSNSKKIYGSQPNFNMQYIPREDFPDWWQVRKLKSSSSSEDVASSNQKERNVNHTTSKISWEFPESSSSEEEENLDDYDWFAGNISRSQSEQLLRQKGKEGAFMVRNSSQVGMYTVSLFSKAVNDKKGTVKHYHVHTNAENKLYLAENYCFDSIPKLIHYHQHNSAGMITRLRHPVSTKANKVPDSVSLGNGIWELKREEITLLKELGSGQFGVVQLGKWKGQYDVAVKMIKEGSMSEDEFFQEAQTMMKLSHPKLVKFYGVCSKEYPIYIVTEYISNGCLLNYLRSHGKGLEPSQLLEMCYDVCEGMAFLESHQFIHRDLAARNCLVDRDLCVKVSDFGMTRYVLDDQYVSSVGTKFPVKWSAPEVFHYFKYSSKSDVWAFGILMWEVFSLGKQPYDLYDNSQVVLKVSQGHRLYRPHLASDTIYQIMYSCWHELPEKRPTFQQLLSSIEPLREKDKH
Description: as §3, §4

TMD8 = assay: Cell antiproliferative activity assay (CellTiter-Glo), TMD8; format: cell-based; conditions: read-out: Cell Growth IC50 (nM) TMD8
Description: as §1, §2

[1] = PK properties assay in SD rats; format: in vivo; conditions: rat, plasma
Description: Six SD rats were divided into two groups, and compound was administered by gavage and tail vein injection. The intravenous injection group was administered 2 min, 5 min, 15 min, 30 min, 1 h, 2 h, 4 h, 6 h, 8 h, and 12 h after administration. 0.25 mL of blood samples were collected from the posterior orbital venous plexus at 5 min, 15 min, 30 min, 1 h, 2 h, 4 h, 6 h, 8 h, 12 h, and 24 h after administration. LC-MS/MS method was used to determine the concentration of compound in plasma samples from SD rats, and the pharmacokinetic parameters were calculated using WinNolin software.

MOLM-13 = assay: Cell antiproliferative activity assay (CellTiter-Glo), MOLM-13; format: cell-based; conditions: Homo sapiens; MOLM-13, 72 hs; read-out: Cell Growth IC50 (nM) MOLM-13
Description: as §1, §2

| SMILES | IC50 (Ramos; Homo sapiens) | IC50 (BTK) | IC50 (ITK) | Selectivity Ratio (BTK and ITK) (ITK) | Selectivity Ratio (BTK and EGFR) (EGFR) | IC50 (EGFR) | Selectivity Ratio (BTK and BMX) (BMX) | IC50 (BMX) | IC50 (Ramos) | Vd ([1]; iv 5 mg/kg) | clearance ([1]; iv 5 mg/kg) | half-life ([1]; iv 5 mg/kg) | AUC ([1]; po 5 mg/kg) | Cmax ([1]; po 5 mg/kg) | bioavailability ([1]; po 5 mg/kg) | half-life ([1]; po 5 mg/kg) | IC50 (MOLM-13) | IC50 (293T; Homo sapiens, HEK-293T) | IC50 (TMD8; TMD8, 72 hs) | further results |
| --- | --- | --- | --- | --- | --- | --- | --- | --- | --- | --- | --- | --- | --- | --- | --- | --- | --- | --- | --- | --- |
| C=CC(=O)N1CCC(C2CCNn3c2nc(-c2ccc(Oc4ccccc4)cc2)c3C(N)=O)CC1 (single isomer, unassigned) [1a (peak 1)] |  | 2.6 nM | 483 nM | 185.6 | 2.00 | 5.2 nM | 5.88 | 15.3 nM |  | 0.959 L/kg | 27 mL/min/kg | 24.6 min | 3430 ng·h/mL | 923 ng/mL | 52.9% | 84.6 min |  | 8450 nM | 5.4 nM |  |
| NC(=O)c1c(-c2ccc(Oc3ccccc3)cc2)nc2n1NCCC2C1CCN(C(=O)/C=C/C(F)(F)F)CC1 (single isomer, unassigned) [10a (peak 1)] |  | 6.7 nM | 2020 nM | 301.5 | 365.37 | 2450 nM | 3.12 | 20.9 nM | 1270 nM | 1.6 L/kg | 59.8 mL/min/kg | 18.6 min | 1390 ng·h/mL | 703 ng/mL | 47.2% | 87 min | 3150 nM | 1010 nM | 16.5 nM |  |
| C#CC(=O)N1CCC(C2CCNn3c2nc(-c2ccc(Oc4ccccc4)cc2)c3C(N)=O)CC1 (centres unmarked) [Example 11, 2-(4-phenoxyphenyl)-8-(1-propioloylpiperidin-4-yl)-5,6,7,8-tetrahydroimidazo[1,2-b]pyridazine-3-carboxamide] | 725 nM | 8.2 nM | 225 nM | 27.40 | 3.43 | 28.1 nM | 2.78 | 22.8 nM |  |  |  |  |  |  |  |  | 1100 nM |  |  |  |
| NC(=O)c1c(-c2ccc(Oc3ccccc3)cc2)nc2n1NCCC2C1CN(C(=O)/C=C/C(F)(F)F)C1 (centres unmarked) [Example 20, (E)-2-(4-phenoxyphenyl)-8-(1-(4,4,4-trifluorobut-2-enoyl)azetidin-3-yl)-5,6,7,8-tetrahydroimidazo[1,2-b]pyridazine-3-carboxamide] | 294 nM |  |  | 1080.6 | 405.5 |  | 8.79 |  |  |  |  |  |  |  |  |  | 1360 nM |  |  |  |

Continued by falling IC50 (BTK), values first:

| IC50 (Ramos; Homo sapiens) | IC50 (BTK) | IC50 (ITK) | Selectivity Ratio (BTK and ITK) (ITK) | Selectivity Ratio (BTK and EGFR) (EGFR) | IC50 (EGFR) | Selectivity Ratio (BTK and BMX) (BMX) | IC50 (BMX) | IC50 (Ramos) | Vd ([1]; iv 5 mg/kg) | clearance ([1]; iv 5 mg/kg) | half-life ([1]; iv 5 mg/kg) | AUC ([1]; po 5 mg/kg) | Cmax ([1]; po 5 mg/kg) | bioavailability ([1]; po 5 mg/kg) | half-life ([1]; po 5 mg/kg) | IC50 (MOLM-13) | SMILES | IC50 (293T; Homo sapiens, HEK-293T) | IC50 (TMD8; TMD8, 72 hs) | further results |
| --- | --- | --- | --- | --- | --- | --- | --- | --- | --- | --- | --- | --- | --- | --- | --- | --- | --- | --- | --- | --- |
|  | 61.8 nM | > 30000 nM | >485.4 | 638.75 | 39500 nM | 2.32 | 144 nM | 6440 nM |  |  |  |  |  |  |  |  | NC(=O)c1c(-c2ccc(Oc3ccccc3)cc2)nc2n1NCCC2C1CCN(C(=O)/C=C/C(F)(F)F)CC1 (single isomer, unassigned) [10b (peak 2)] |  | 257 nM | IC50 (293T): 1910 nM |
| 2760 nM | 8.2 nM | 10800 nM | 1314 | 235.36 | 1930 nM | 6.04 | 49.5 nM |  |  |  |  |  |  |  |  |  | NC(=O)c1c(-c2ccc(Oc3ccccc3)cc2)nc2n1NCCC2C1CCN(C(=O)/C=C/C(F)(F)F)CC1 (centres unmarked) [Example 10, 2-(4-Phenoxy-phenyl)-8-[1-(4,4,4-trifluoro-but-2-enoyl)-piperidin-4-yl]-5,6,7,8-tetrahydro-imidazo[1,2-b]pyridazine-3-carboxamide] | 45300 nM |  | IC50 (TMD8; Homo sapiens, TMD8, TMD8, 72 hs): 51.6 nM |
